The record followed here is publication PMC10102842 (Clinical cancer research : an official journal of the …, 2023).

The assay addresses DNA polymerase theta (Polθ) (Homo sapiens, UniProt O75417). Kind of assay: Nano-luciferase MMEJ reporter assay in HEK-293 cells. In kind it is cell-based.

DNA polymerase theta (Polθ), sequence (O75417 whole entry): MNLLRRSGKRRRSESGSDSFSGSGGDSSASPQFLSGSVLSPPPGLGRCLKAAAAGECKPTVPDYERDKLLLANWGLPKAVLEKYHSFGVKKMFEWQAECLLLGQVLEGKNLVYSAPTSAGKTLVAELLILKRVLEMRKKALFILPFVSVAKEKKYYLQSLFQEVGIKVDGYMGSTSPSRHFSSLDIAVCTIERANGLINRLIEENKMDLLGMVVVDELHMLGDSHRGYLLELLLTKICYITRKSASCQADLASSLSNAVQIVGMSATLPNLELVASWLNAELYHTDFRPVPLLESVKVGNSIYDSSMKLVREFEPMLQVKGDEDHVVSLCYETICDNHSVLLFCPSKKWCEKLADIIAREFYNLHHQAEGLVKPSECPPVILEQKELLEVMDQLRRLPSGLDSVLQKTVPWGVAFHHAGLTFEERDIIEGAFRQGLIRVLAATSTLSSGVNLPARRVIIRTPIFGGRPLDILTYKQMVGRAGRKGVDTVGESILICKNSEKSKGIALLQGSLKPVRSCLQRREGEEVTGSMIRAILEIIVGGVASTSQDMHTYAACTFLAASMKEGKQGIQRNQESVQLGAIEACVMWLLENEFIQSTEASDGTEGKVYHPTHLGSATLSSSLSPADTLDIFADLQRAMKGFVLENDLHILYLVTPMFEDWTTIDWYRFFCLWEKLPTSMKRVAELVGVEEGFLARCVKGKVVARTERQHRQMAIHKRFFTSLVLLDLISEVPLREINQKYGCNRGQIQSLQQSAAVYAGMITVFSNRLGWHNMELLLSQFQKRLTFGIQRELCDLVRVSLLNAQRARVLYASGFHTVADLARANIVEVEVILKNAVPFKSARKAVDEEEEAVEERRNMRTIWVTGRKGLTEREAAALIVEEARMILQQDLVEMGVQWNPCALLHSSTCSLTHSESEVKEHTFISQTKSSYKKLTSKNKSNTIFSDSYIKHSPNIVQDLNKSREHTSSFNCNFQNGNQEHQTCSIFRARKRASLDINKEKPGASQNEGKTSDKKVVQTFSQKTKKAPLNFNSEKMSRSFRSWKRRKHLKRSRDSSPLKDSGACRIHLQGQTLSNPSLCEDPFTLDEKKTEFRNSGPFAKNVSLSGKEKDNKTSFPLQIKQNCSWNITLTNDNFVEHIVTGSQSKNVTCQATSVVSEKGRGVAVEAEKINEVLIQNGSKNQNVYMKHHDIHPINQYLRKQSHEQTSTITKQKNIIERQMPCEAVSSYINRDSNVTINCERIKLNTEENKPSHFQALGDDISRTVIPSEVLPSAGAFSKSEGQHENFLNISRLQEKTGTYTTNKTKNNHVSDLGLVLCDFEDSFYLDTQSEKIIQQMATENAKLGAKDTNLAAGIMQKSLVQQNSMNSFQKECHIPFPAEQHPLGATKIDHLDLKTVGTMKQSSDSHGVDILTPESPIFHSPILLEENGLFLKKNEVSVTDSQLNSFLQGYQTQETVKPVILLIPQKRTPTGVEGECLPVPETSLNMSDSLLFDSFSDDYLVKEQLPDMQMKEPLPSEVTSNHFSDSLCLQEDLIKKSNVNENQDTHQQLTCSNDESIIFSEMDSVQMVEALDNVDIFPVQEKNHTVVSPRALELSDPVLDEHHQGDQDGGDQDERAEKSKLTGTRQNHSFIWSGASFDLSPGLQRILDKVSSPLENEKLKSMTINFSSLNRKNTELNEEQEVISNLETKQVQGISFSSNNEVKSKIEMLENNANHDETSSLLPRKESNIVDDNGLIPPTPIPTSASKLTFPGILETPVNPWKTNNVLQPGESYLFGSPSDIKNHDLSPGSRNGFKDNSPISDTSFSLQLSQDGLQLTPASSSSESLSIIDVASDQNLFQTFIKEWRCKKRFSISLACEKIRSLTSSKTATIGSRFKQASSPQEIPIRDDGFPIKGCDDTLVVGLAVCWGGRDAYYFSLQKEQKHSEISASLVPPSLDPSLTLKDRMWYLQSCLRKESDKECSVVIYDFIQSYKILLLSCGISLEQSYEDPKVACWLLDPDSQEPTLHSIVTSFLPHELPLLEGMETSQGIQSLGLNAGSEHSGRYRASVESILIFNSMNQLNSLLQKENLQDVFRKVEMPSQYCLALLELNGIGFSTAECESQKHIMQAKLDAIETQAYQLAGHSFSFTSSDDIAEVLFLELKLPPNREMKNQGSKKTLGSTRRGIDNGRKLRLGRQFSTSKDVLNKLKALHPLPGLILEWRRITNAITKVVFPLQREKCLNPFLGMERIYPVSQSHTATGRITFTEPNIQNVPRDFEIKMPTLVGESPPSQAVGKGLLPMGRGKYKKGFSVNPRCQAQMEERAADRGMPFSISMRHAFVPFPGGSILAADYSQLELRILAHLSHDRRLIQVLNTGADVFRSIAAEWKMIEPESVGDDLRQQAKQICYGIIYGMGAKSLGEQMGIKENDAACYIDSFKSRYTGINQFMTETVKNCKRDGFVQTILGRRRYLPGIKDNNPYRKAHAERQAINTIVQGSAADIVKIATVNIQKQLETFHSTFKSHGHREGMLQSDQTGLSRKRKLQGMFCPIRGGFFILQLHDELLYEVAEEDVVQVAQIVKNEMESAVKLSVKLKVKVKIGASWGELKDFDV

In turn, ART899 registered an IC50 of approximately 0.18 µM.
